Experiments:
strains of C. albicans = system: strains of C. albicans; set-up: method as in ref 24 = [24]; 24. Watanabe NA , Horii T , Miyazaki M , Hata K 2011 In vitro activity of E1210 and in vivo activity of E1211, a water-soluble prodrug of E1210, in combination with other antifungals, abstr F1-1378 .; conditions: cited from earlier work
C. neoformans H99 = test: Microtiter checkerboard synergy with FLC; format: cell-based, Cryptococcus neoformans; conditions: in combination with FLC, MIC read at 50% inhibition, synergy FICI < 0.5
Description: An important consideration for developing a new treatment for CM is the potential for inclusion in combination therapy. We evaluated the synergy of APX001A and APX2020 in combination with FLC using standard microtiter dilution techniques ([33]). […] Importantly, no antagonism was observed.
To establish the antimicrobial activity of the APX001A analogs, broth microdilution susceptibility testing was performed according to Clinical and Laboratory Standards Institute (CLSI) guidelines M27-A3 ([47]) for yeasts and M38-A2 for molds ([48]). APX001A and analogs were first diluted in DMSO to obtain intermediate dilutions. These were further diluted in microtiter plates to obtain a final concentration of 2 to 0.002 μg/ml. One microliter of DMSO was added to the no-drug control wells. The solutions were mixed on a plate shaker for 10 min, and the plates were incubated at 35°C for 40 to 48 h (C. albicans, A. fumigatus) and 72 h (C. neoformans). The minimum concentration that led to a 50% reduction in fungal growth compared to that for the control (determined with the aid of a reading mirror) was determined as the MIC for C. albicans and C. neoformans. The minimum concentration that led to the shortening of hyphae compared to the hyphal growth in DMSO control wells was determined as the minimum effective concentration (MEC) for A. fumigatus (as read for the echinocandins). […]

[1] = system: Candida tropicalis strains; set-up: method as in ref 24 = [24]; 24. Watanabe NA , Horii T , Miyazaki M , Hata K 2011 In vitro activity of E1210 and in vivo activity of E1211, a water-soluble prodrug of E1210, in combination with other antifungals, abstr F1-1378 .; conditions: cited from earlier work
C. neoformans strain H99 = test: Murine model of cryptococcal meningitis, APX001 alone and with FLC (no ABT); format: in vivo, Cryptococcus neoformans; conditions: monotherapy 7 days; APX001 390 mg/kg TID oral gavage, FLC 80 mg/kg/day i.p.; male CD-1 mice
Description: The efficacies of APX001 and FLC were evaluated in a well-established mouse CM model ([34]). Since Cryptococcus infections can be hematogenously disseminated to other organs, the numbers of CFU in both lung and brain tissue were evaluated. Male CD-1 mice were infected with 5.9 × 10^4 CFU of C. neoformans strain H99 via lateral tail vein injection. Mice were assigned to four groups (n = 10), consisting of (i) treatment with APX001, (ii) treatment with APX001 plus FLC, (iii) treatment with FLC, or (iv) no treatment as a control. Treatment was initiated within 1 h after infection. APX001 was administered by oral gavage at a dose of 390 mg/kg thrice daily (TID), with each dose being administered roughly 8 h apart. […] FLC (2 mg/ml; Sagent Pharmaceuticals, Schaumburg, IL) was administered at a dose of 80 mg/kg/day intraperitoneally (i.p.).
Brain and lung burdens in mice were measured at 7 days postinfection with C. neoformans H99. Male CD-1 mice were infected with 5.9 × 10^4 CFU of C. neoformans strain H99 via the lateral tail vein. Treatment was initiated at about 1 h postinfection and continued for 7 days. APX001 was administered by oral gavage at a dose of 390 mg/kg thrice daily, with each dose being administered roughly 8 h apart. FLC (2 mg/ml; Sagent Pharmaceuticals, Schaumburg, IL) was administered at a dose of 80 mg/kg/day i.p. once daily. Fungal burden data were log10 transformed and evaluated using Kruskal-Wallis tests with Dunn's multiple-comparison test for post hoc analysis (Prism software, v5; GraphPad Software, Inc., San Diego, CA). A P value of ≤0.05 was considered statistically significant (*, P ≤ 0.05; **, P ≤ 0.01; ***, P ≤ 0.001). The 95% confidence interval (CI) is presented.
C. neoformans strain H99 was grown in yeast extract-peptone-dextrose broth at 30°C on a shaker (220 rpm) for 24 h, centrifuged (1,980 relative centrifugal force), and washed twice in phosphate-buffered saline (PBS), resuspended in PBS, and quantified by hemacytometric count. Male CD-1 mice were infected with ∼5 × 10^4 CFU per mouse via lateral tail vein injection of 100 μl. Mice were weighed, and treatment was begun within 1 h after infection. Treatments were administered daily for 7 days. Mice were weighed daily and observed for acute and chronic adverse symptoms. Mice were sacrificed on day 8, and the brain and left lung were homogenized and cultured for quantitative determination of the tissue burden (number of CFU per gram of tissue). Tissues were homogenized for 25 s in 1 ml phosphate-buffered saline using two 6.5-mm steel beads and a Mini-Beadbeater 16 apparatus (Biospec Products, Inc., Bartlesville, OK) and serially diluted in 10-fold steps. Aliquots (100 μl) of homogenate were plated and incubated for 3 to 7 days at 37°C. Fungal burden data were log10 transformed and evaluated using Kruskal-Wallis tests with Dunn's multiple-comparison test for post hoc analysis (Prism software, v5; GraphPad Software, Inc., San Diego, CA). A P value of ≤0.05 was considered statistically significant.

## Nc1ncccc1-c1cc(Cc2ccc(COc3ccccn3)cc2)no1 [APX001A]
Strains of C. albicans
  strains with synergy with FLC: 2 of 20
C. neoformans H99
  fractional inhibitory concentration index (FICI): 0.37
[1]
  strains with synergy with FLC: 9 of 10

## OC(Cn1cncn1)(Cn1cncn1)c1ccc(F)cc1F [FLC, fluconazole, reference compound]
C. neoformans strain H99
  reduction in brain fungal burden vs untreated control: 1.04 log10 CFU/g
  reduction in lung fungal burden vs untreated control: 1.30 log10 CFU/g

Reference: publication PMC6105804, “In Vitro and In Vivo Evaluation of APX001A/APX001 and Other Gwt1 Inhibitors against Cryptococcus” (Antimicrobial Agents and Chemotherapy, 2018)
